# Assay results: PMC7866587, “Cell cycle arrest and apoptosis induction by Juniperus communis extract in esophageal squamous cell carcinoma through activation of p53‐induced apoptosis pathway” (Food Science & Nutrition, 2020)
# Tests used:
# [1] = system: CE48T/VGH cells; experiment: MTT cell viability assay; assay type: cell-based, human; details: mean ± SD; for IC50: Homo sapiens
# Method: (§1) CE81T/VGH (human esophageal squamous cell carcinoma), CE48T/VGH (human esophageal epidermoid carcinoma (VGH), SVEC (mouse vascular endothelial cell) and MDCK (cannis kidney epithelial cells) were purchased from the Food Industry Research and Development Institute. CE81T/VGH, CE48T/VGH, SVEC, and MDCK were cultured in Dulbecco's Modified Eagle Medium supplemented with 10% fetal bovine serum (Gibco BRL), 10 mM HEPES (Gibco), 1 mM pyruvate (Gibco), P/S (100 μg/ml penicillin, and 100 μg/ml streptomycin; Gibco), and non‐essential amino acids (Gibco, CE81T/VGH and CE48T/VGH only). Cells were grown in 10 cm^2 culture dishes in a humidified atmosphere with 5% CO2 at 37°C. The TP53 in the CE81T/VGH cells was mutated, which was detected using automated extraction of nucleic acids (AccuBioMed Co., Ltd.) and Femtopath Human Primer Sets (HongJing Biotech). JCo was purchased from the PHOENIX company and extracted using steam distillation. The clinical drug 5‐Fluorouracil (5‐FU; Sigma) was prepared in dimethyl sulfoxide (DMSO) in each in vitro experiment. Cells were treated with equivalent amounts of DMSO in the control and treatment groups, and the final concentration of DMSO in each experiment was 0.01%–0.5%.
# (§2) The viability of CE81T/VGH, CE48T/VGH, MDCK, and SVEC cells was determined using a modified 3‐(4,5‐dimethylthiazol‐2‐yl)‐2,5‐diphenyltetrazolium bromide (MTT) assay. Cells were cultured in a 96‐well plate at a density of 5 × 10^3 cells/well for 24 hr and treated with different concentrations of JCo extract or 5‐FU for 24, 48, and 72 hr. MTT was dissolved in the base medium (400 μg/mL, Sigma), and 100 μl of solution was added into each well and incubated for 6–8 hr. The MTT formazan crystals were dissolved in 50 μL DMSO and the optical density (O.D.) was detected using a microplate reader (Molecular Devices, Spec384) at 550 nm. Cell viability was calculated as the O.D. percentage relative to the controls. The half‐maximal inhibitory concentration (IC50) value of JCo extract was measured from the cell viability assay.
# [2] = system: CE81T/VGH cells; experiment: MTT cell viability assay; assay type: cell-based, human; details: for IC50: Homo sapiens, CE81T/VGH, mean ± SD
# Method: as §1, §2
# [3] = system: MDCK cells; experiment: MTT cell viability assay (normal cells); assay type: cell-based, cannis; details: Canis lupus familiaris, mean ± SD
# Method: as §1, §2
# [4] = system: SVEC cells; experiment: MTT cell viability assay (normal cells); assay type: cell-based; details: Mus musculus, mean ± SD
# Method: as §1, §2
structure (smiles),measurement,setting,value
"O=c1[nH]cc(F)c(=O)[nH]1 [5‐FU, 5‐fluorouracil]",IC50 (cell viability),[1]; 48 hr,5.64 ± 0.34 µg/mL
same,IC50,[1]; 24 hr,16 ± 0.03 µg/mL
same,IC50,[1]; 72 hr,3.73 ± 0.06 µg/mL
same,IC50,[2]; 24 hr,> 20 µg/mL
same,IC50,[2]; 48 hr,15.3 ± 6.74 µg/mL
same,IC50,[2]; 72 hr,1.62 ± 0.04 µg/mL
same,selection for ESCC versus normal cells (from IC50 values),[2]; after 48 and 72 hr,lower
same,selection between ESCC and normal cells (from IC50 values),[2]; after 24 hr,no obvious selection
same,IC50,[3]; 24 hr,> 20 µg/mL
same,IC50,[3]; 48 hr,< 0.63 µg/mL
same,IC50,[3]; 72 hr,< 0.63 µg/mL
same,IC50,[4]; 24 hr,3.53 ± 0.29 µg/mL
same,IC50,[4]; 48 hr,< 0.63 µg/mL
same,IC50,[4]; 72 hr,< 0.63 µg/mL
